Data taken from patent US6916915B1, “Stressor regulated genes” (Duke University, priority 1998, dated 2005).
“And” between values parts separate entries of the source, which are not always exact repeats. Equal values may be shown once.

What was measured:
C. elegans [1] = assay: Northern blot analysis of steady-state mRNA levels after cadmium exposure; format: in vivo, Caenorhabditis elegans; conditions: for Fold-change in mRNA levels following cadmium exposure, VL1 (Northern blot): clone VL1 (mtl-1)
Protocol: (§1) Growth and isolation of C. elegans—The N2 strain of C. elegans was grown in liquid S medium (0.1M NaCl, 50 mM potassium phosphate, pH 6.0, 5 μg/ml cholesterol, 10 mM potassium citrate, 3 mM CaCl2, 3 mM MgCl2, 50 μM EDTA, 25 μM FeSO4, 10 μM MnCl2, 10 μM ZnSO4 and 1 μM CuSO4) using E. coli OP50 as a food source (Brenner, S. (1974) Genetics 77, 71-94). In experiments where nematodes were exposed to cadmium, the medium was supplemented with 100 μM CdCl2 (Freedman, J. H. et al. (1993) J. Biol. Chem. 268, 2554-2564). C. elegans were grown in the presence of metal for 8 h or 24 h at ˜20° C. Nematodes were then collected following centrifugation at 800×g for 5 min. Pellets were suspended in 5 mM NaCl containing 35% sucrose (final concentration) and viable nematodes were collected from the top of the solution following centrifugation at 1000×g for 5 min at 4° C. Nematodes were then washed three times by suspension in M9 buffer (22 mM KH2PO4, 42 mM Na2HPO4, 85 mM NaCl, 1 mM MgSO4) followed by sedimentation at 800×g. Washed nematode pellets were finally suspended in a small volume of M9 buffer, rapidly frozen in liquid nitrogen and stored at −80° C.
RNA isolation—Total RNA was isolated from mix-stage populations of C. elegans exposed to 100 μM CdCl2 for 8 h and 24 h and control, non-exposed nematodes. Frozen worms were first ground into a fine powder using a liquid nitrogen-cooled mortar and pestle. Powdered C. elegans (200 mg) were then homogenized in 2 ml of TRIzol (GIBCO/BRL). RNA was then collected from the aqueous phase following the addition of chloroform, precipitated by adding isopropyl alcohol and then air-dried. The dried RNA pellet was then dissolved in diethyl pyrocarbonate (DEPC)-treated water. For some experiments, poly(A^+) RNA was subsequently isolated using the Poly(A) Tract System following manufacturer's instructions (Promega).
Northern Blot Analysis-Samples of total RNA (20 μg) or poly(A^+) RNA (2 μg) were denatured in a 2.2M formaldehyde/50% (v/v) formamide buffer and then subjected to denaturing gel electrophoresis on a 1.5% agarose/2.2M formaldehyde gel. Size-fractionated RNAs were then transferred to Nytran membrane (Schleicher and Schuell). Membranes were probed with ^32P-labeled cDNA fragments of the differentially expressed mRNAs. cDNAs to be used as probes were generated by the PCR from the cloned DNA fragments recovered from differential display gels. cDNAs were labeled with [α-^32]dCTP (Amersham) by random-primed labeling. Membranes were hybridized in 6 ×SSC (1×SSC=0.15M sodium chloride, 15 mM sodium citrate, pH 7.0), 1.25× Denhardt's solution, 0.5% sodium dodecyl sulfate (SDS), 300 ng denatured sonicated salmon sperm DNA and heat-denatured probe at 42° C. for 16 h. Following hybridization, membranes were washed at a high stringency of 50° C. for 30 min in 0.1×SSC/0.1% SDS. The amount of probe hybridizing to the RNA was determined by PhosphorImager analysis (Molecular Dynamic System) . After images were obtained, membranes were incubated at 95° C. for 1 h in 0.1% SDS to remove the bound probe. They were then hybridized with a ^32P-labeled C. elegans myosin light-chain probe, which served as a loading control (Freedman, J. H. et al. (1993) J. Biol. Chem. 268, 2554-2564). As a positive control, membranes were also hybridized to a ^32P-labeled C. elegans metallothonein-2 (mtl-2) cDNA probe (Freedman, J. H. et al. (1993) J. Biol. Chem. 268, 2554-2564). Quantification of radioactivity was performed using the ImageQuant program (Molecular Dynamic System). Steady-state levels of mRNA expression were all normalized to that of the constitutively expressed myosin light-chain mRNAs (Freedman, J. H. et al. (1993) J. Biol. Chem. 268, 2554-2564; Cummins, C. et al. (198B) Mol. Cell. Biol 8, 5334-5349).

C. elegans [2] = assay: mRNA differential display of control and cadmium-treated nematodes; format: in vivo, Caenorhabditis elegans; conditions: cadmium-treated C. elegans cDNA compared to the control
Protocol: as §1
RNA isolation—Total RNA was isolated from mix-stage populations of C. elegans exposed to 100 μM CdCl2 for 8 h and 24 h and control, non-exposed nematodes. […]

[Cl][Cd][Cl] [cadmium, CdCl2]
steady-state level of mtl-2 mRNA (C. elegans [1]; 100 μM CdCl2 for 24 h vs control C. elegans): increased | Fold-change in mRNA levels following cadmium exposure, DDRT16 (Northern blot) (C. elegans [1]; clone DDRT16, 24 hours, 100 μM CdCl2, value in parenthesis, by Northern blot): 3.5 fold | Fold-change in mRNA levels following cadmium exposure, VL1 (Northern blot) (C. elegans [1]; 8 hours, 100 μM CdCl2, value in parenthesis, by Northern blot): (4.7) fold | Fold-change in mRNA levels following cadmium exposure, VL1 (Northern blot) (C. elegans [1]; 24 hours, 100 μM CdCl2, value in parenthesis, by Northern blot): (5.2) fold | Fold-change in mRNA levels following cadmium exposure, VL19 (Northern blot) (C. elegans [1]; clone VL19, 24 hours, 100 μM CdCl2, value in parenthesis, by Northern blot): 2.3 fold | Fold-change in mRNA levels following cadmium exposure, VL21 (Northern blot) (C. elegans [1]; clone VL21, 24 hours, 100 μM CdCl2, value in parenthesis, by Northern blot): 2 fold and 2.0 fold | band intensity of VL9 cDNA in differential display (C. elegans [2]): decreased band intensity
